In assay [1] the test system is metabolism of retinoic acid in human breast cancer cells. Briefly: Inhibition of retinoic acid (RA) metabolism (Example C.1). Type of assay: cell-based. The following applies: MCF-7 human breast cancer cells, 3H-RA as substrate; concentration needed to reduce the amount of metabolites to 50% of the control. Summed up: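 Test compound (in 1% DMSO) added at several concentrations to MCF-7 cell suspensions fed ³H-RA, after RA induction of metabolism one day earlier. Scintillation counting of the separated polar metabolite fraction; IC50 = concentration giving 50% of control metabolite level.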

A further assay has as its system Ovariectomized rats. Briefly: Vaginal keratinization test on ovariectomized rats (Example C.2). To be noted: estradiol undecylate induced keratinization, per os once daily on days 1-3, active dose = 50% of rats show complete suppression. Type of assay: in vivo. Summed up:
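Value is the lowest oral dose (mg/kg) at which half of tested rats show complete suppression of estradiol undecylate-induced vaginal keratinization by histology. Ovariectomized rats received 100 μg/100 g estradiol undecylate s.c., then compound or PEG 200 vehicle p.o. daily for three days; sacrifice one day later.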

Experimental findings from patent US7179825B2, “Retinoic acid mimetic anilides” (Janssen Pharmaceutica N.V., priority 1997, dated 2007) are described below.

pIC50: −log10 of the molar value. Where only a bound is given, the exact number is not on record here.

The pIC50 is −log10 of the IC50, conventionally taken in molar units. For the compound `CCOc1cc(CC(=O)Nc2ccc(C(C(CC)CC)n3ccnc3)cc2)ccc1OCc1ccccc1` (centres unmarked) [Compound 128], the pIC50 in assay [1] was 10.74. In addition, the “LAD (lowest active dose)” value in the assay on Ovariectomized rats was found to be 5.00 mg/kg.
For `CCC(CC)C(c1ccc(NC(=O)Cc2ccc(O)cc2C)cc1)n1ccnc1` (centres unmarked) [Compound 129], the pIC50 in assay [1] was 10.63. For the same compound, the “LAD (lowest active dose)” value with Ovariectomized rats is given as 2.50 mg/kg.
For `CCC(CC)C(c1ccc(NC(=O)Cc2ccc(OCc3cccnc3)cc2)cc1)n1ccnc1` (centres unmarked) [Compound 130], in that order: 10.96 and 5.00 mg/kg.
Regarding `CC(C)C(c1ccc(NC(=O)Cc2ccc(Cl)cc2)cc1)n1cncn1` (centres unmarked) [Compound 131], in assay [1], the pIC50 is 8.39. In addition, in the assay with Ovariectomized rats, the “LAD (lowest active dose)” value was determined as 5.00 mg/kg.
As for `CC(C)C(c1ccc(NC(=O)Cc2ccc(F)cc2)cc1)n1cncn1` (centres unmarked) [Compound 132], the pIC50 in assay [1] was 8.35. Also, the “LAD (lowest active dose)” value in the assay on Ovariectomized rats amounted to 5.00 mg/kg.
The corresponding values for `Cc1ccc(CC(=O)Nc2ccc(C(C(C)C)n3cncn3)cc2)cc1` (centres unmarked) [Compound 133] are 8.34 and over 5.00 mg/kg.
For the compound `CC(C)C(c1ccc(NC(=O)Cc2ccc(O)cc2)cc1)n1cncn1` (centres unmarked) [Compound 134], the pIC50 in assay [1] is 8.53. For the same compound, the “LAD (lowest active dose)” value in the assay with Ovariectomized rats is 5.00 mg/kg.
For `CCOc1ccc(CC(=O)Nc2ccc(C(C(C)C)n3cncn3)cc2)cc1` (centres unmarked) [Compound 135], in assay [1], the pIC50 is 8.84. Also, in the assay with Ovariectomized rats, the “LAD (lowest active dose)” value is on record as 2.50 mg/kg.
Turning to `COc1ccc(CC(=O)Nc2ccc(C(C(C)C)n3cncn3)cc2)cc1OC.O` (centres unmarked) [Compound 136], the pIC50 in assay [1] is 8.32. Further, in the assay with Ovariectomized rats, the “LAD (lowest active dose)” value is recorded as 5.00 mg/kg.
As to `CC(C)C(c1ccc(NC(=O)Cc2cccc(O)c2)cc1)n1cncn1` (centres unmarked) [Compound 137], the pIC50 in assay [1] is 8.73. In addition, the “LAD (lowest active dose)” value in the assay with Ovariectomized rats is reported as over 5.00 mg/kg.
With `COc1cc(CC(=O)Nc2ccc(C(C(C)C)n3cncn3)cc2)ccc1O` (centres unmarked) [Compound 138], the pIC50 in assay [1] is 8.20. Also, in the assay with Ovariectomized rats, the “LAD (lowest active dose)” value is reported as over 5.00 mg/kg.
Consider `COc1cc(CC(=O)Nc2ccc(C(C(C)C)n3ccnc3)cc2)cc(OC)c1OC` (centres unmarked) [Compound 139], for which, in assay [1], the negative logarithm of the IC50 (pIC50) was 8.76. Further, the “LAD (lowest active dose)” value in the assay on Ovariectomized rats is on record as 10.00 mg/kg.
As for `COc1ccc(CC(=O)Nc2ccc(C(C(C)C)n3ccnc3)cc2)cc1OC` (centres unmarked) [Compound 140], the pIC50 in assay [1] was 7.67. Besides, the “LAD (lowest active dose)” value in the assay with Ovariectomized rats is 5.00 mg/kg.
Consider `CC(C)C(c1ccc(NC(=O)Cc2ccc(Cl)cc2Cl)cc1)n1ccnc1` (centres unmarked) [Compound 141], for which the pIC50 in assay [1] was 8.88. The “LAD (lowest active dose)” value in the assay on Ovariectomized rats is on record as over 10.00 mg/kg.
The corresponding values for `COc1cc(CC(=O)Nc2ccc(C(C(C)C)n3ccnc3)cc2)ccc1O` (centres unmarked) [Compound 142] are 7.51 and 5.00 mg/kg.
Regarding `CC(C)C(c1ccc(NC(=O)Cc2ccc(Cl)c(Cl)c2)cc1)n1ccnc1` (centres unmarked) [Compound 143], the pIC50 in assay [1] was 8.39. Further, in the assay with Ovariectomized rats, the “LAD (lowest active dose)” value stood at 10.00 mg/kg.
The corresponding values for `CC(C)C(c1ccc(NC(=O)Cc2ccc(N)c(I)c2)cc1)n1ccnc1` (centres unmarked) [Compound 148] are 8.73 and over 5.00 mg/kg.
With `CC(C)C(c1ccc(NC(=O)Cc2ccc([N+](=O)[O-])cc2)cc1)n1ccnc1` (centres unmarked) [Compound 151], in assay [1], the pIC50 was 8.68. In the assay on Ovariectomized rats, the “LAD (lowest active dose)” value amounted to 5.00 mg/kg.
The corresponding values for `CC(C)C(c1ccc(NC(=O)Cc2ccc(N)cc2)cc1)n1ccnc1` (centres unmarked) [Compound 152] are 8.29 and over 5.00 mg/kg.
Turning to `C/C(=C\c1ccncc1)C(=O)Nc1ccc(C(C(C)C)n2cncn2)cc1` (centres unmarked) [Compound 158], the pIC50 in assay [1] was under 7.00. The “LAD (lowest active dose)” value in the assay with Ovariectomized rats is over 10.00 mg/kg.
For `C/C(=C\c1ccc(C(F)(F)F)cc1)C(=O)Nc1ccc(C(C(C)C)n2cncn2)cc1` (centres unmarked) [Compound 159], in that order: under 7.00 and over 10.00 mg/kg.
For `CC(C)C(c1ccc(NC(=O)C2Oc3ccccc3O2)cc1)n1cncn1` (centres unmarked) [Compound 161], in that order: 8.73 and over 2.50 mg/kg.
